Columns and labels:
[1] = tested on: Triticum aestivum (spring); experiment: Pre-emergence herbicidal effect and crop plant compatibility; format: in vivo; settings: 3 weeks
Source text: (§1) Seeds of monocotyledonous and dicotyledonous weed plants and crop plants are laid out in wood-fiber pots in sandy loam and covered with soil. The compounds of the invention, formulated in the form of wettable powders (WP) or as emulsion concentrates (EC), are then applied to the surface of the covering soil as aqueous suspension or emulsion at a water application rate equating to 600 to 800 L/ha with addition of 0.2% wetting agent.
(§2) After the treatment, the pots are placed in a greenhouse and kept under good growth conditions for the trial plants. The damage to the trial plants is scored visually after a trial duration of 3 weeks by comparison with untreated controls (herbicidal activity in percent (%): 100% efficacy=the plants have died, 0% efficacy=like control plants).

Zea mays [2] = experiment: as above; format: in vivo; settings: 3 weeks
Source text: as §1, §2

Oryza sativa [3] = experiment: as above; format: in vivo; settings: 3 weeks
Source text: as §1, §2

[4] = logp (HCOOH), physicochemical characterization
Matricaria inodora = experiment: Pre-emergence herbicidal effect; format: in vivo; settings: 3 weeks
Source text: as §1, §2

Polygonum convolvulus = experiment: Pre-emergence herbicidal effect; format: in vivo; settings: 3 weeks
Source text: as §1, §2

Viola tricolor = experiment: Pre-emergence herbicidal effect; format: in vivo; settings: 3 weeks
Source text: as §1, §2

Stellaria media = experiment: Pre-emergence herbicidal effect; format: in vivo; settings: 3 weeks
Source text: as §1, §2

Amaranthus retroflexus = experiment: Pre-emergence herbicidal effect; format: in vivo; settings: 3 weeks
Source text: as §1, §2

Avena fatua = experiment: Pre-emergence herbicidal effect; format: in vivo; settings: 1280 g/ha, 3 weeks
Source text: as §1, §2

Echinochloa crus-galli = experiment: Pre-emergence herbicidal effect; format: in vivo; settings: 3 weeks
Source text: as §1, §2

Veronica persica = experiment: Pre-emergence herbicidal effect; format: in vivo; settings: 3 weeks
Source text: as §1, §2

Ipomoea purpurea = experiment: Post-emergence herbicidal effect; format: in vivo; settings: 320 g/ha (dose by row order of upper half), scoring after about 3 weeks
Experimental: (§3) Seeds of monocotyledonous and dicotyledonous weed and crop plants are laid out in sandy loam in wood-fiber pots, covered with soil and cultivated in a greenhouse under good growth conditions. 2 to 3 weeks after sowing, the test plants are treated at the one-leaf stage. The compounds of the invention, formulated in the form of wettable powders (WP) or as emulsion concentrates (EC), are then sprayed onto the green parts of the plants as aqueous suspension or emulsion at a water application rate equating to 600 to 800 L/ha with addition of 0.2% wetting agent. After the trial plants have been left to stand in a greenhouse under optimal growth conditions for about 3 weeks, the efficacy of the formulations is scored visually in comparison to untreated controls (herbicidal action in percent (%): 100% efficacy=the plants have died, 0% efficacy=like control plants).

[5] = tested on: Triticum aestivum (spring); experiment: Post-emergence herbicidal effect and crop plant compatibility; format: in vivo; settings: visual scoring after about 3 weeks
Experimental: as §3

Zea mays [6] = experiment: as above; format: in vivo; settings: visual scoring after about 3 weeks
Experimental: as §3

Oryza sativa [7] = experiment: as above; format: in vivo; settings: visual scoring after about 3 weeks
Experimental: as §3

Setaria viridis = experiment: Pre-emergence herbicidal effect; format: in vivo; settings: 320 g/ha, 3 weeks
Source text: as §1, §2

SMILES | TRZAS herbicidal activity in percent ([1]; 320 g/ha) | ZEAMX herbicidal activity in percent (Zea mays [2]; 320 g/ha) | ORYSA herbicidal activity in percent (Oryza sativa [3]; 320 g/ha) | logp (HCOOH) [4] | MATIN herbicidal activity in percent (Matricaria inodora; 320 g/ha) | STEME herbicidal activity in percent (Stellaria media; 320 g/ha) | AMARE herbicidal activity in percent (Amaranthus retroflexus; 320 g/ha) | VERPE herbicidal activity in percent (Veronica persica; 320 g/ha) | TRZAS herbicidal activity in percent ([1]; 80 g/ha) | ZEAMX herbicidal activity in percent (Zea mays [2]; 80 g/ha) | ORYSA herbicidal activity in percent (Oryza sativa [3]; 80 g/ha) | post-emergence efficacy TRZAS ([5]; 80 g/ha) | post-emergence efficacy TRZAS ([5]; 320 g/ha) | post-emergence efficacy ZEAMX (Zea mays [6]; 80 g/ha) | post-emergence efficacy ZEAMX (Zea mays [6]; 320 g/ha) | post-emergence efficacy ORYSA (Oryza sativa [7]; 80 g/ha) | post-emergence efficacy ORYSA (Oryza sativa [7]; 320 g/ha) | VIOTR herbicidal activity in percent (Viola tricolor; 320 g/ha) | AMARE herbicidal activity in percent (Amaranthus retroflexus; 80 g/ha) | VERPE herbicidal activity in percent (Veronica persica; 80 g/ha) | also measured
CC(=O)c1cnc(N[C@@H]2CCc3c(F)cccc32)nc1 [1.90] | 0% | 20% | 20% | solid; m.p.: 111.5° C.; logp (HCOOH): 2.43; 1H-NMR (CDCl3, 400 MHZ, δ in ppm: | 100% | 80% | 90% | 100% |  |  |  |  |  |  |  |  |  |  |  |  | TRZAS herbicidal activity in percent ([1]; 1280 g/ha): 0%; ZEAMX herbicidal activity in percent (Zea mays [2]; 1280 g/ha): 20%; ORYSA herbicidal activity in percent (Oryza sativa [3]; 1280 g/ha): 20%; MATIN herbicidal activity in percent (Matricaria inodora; 1280 g/ha): 100%; POLCO herbicidal activity in percent (Polygonum convolvulus; 1280 g/ha): 90%; VIOTR herbicidal activity in percent (Viola tricolor; 1280 g/ha): 100%; STEME herbicidal activity in percent (Stellaria media; 1280 g/ha): 100%; AMARE herbicidal activity in percent (Amaranthus retroflexus; 1280 g/ha): 100%; AVEFA herbicidal activity in percent (Avena fatua): 100%; ECHCG herbicidal activity in percent (Echinochloa crus-galli; 1280 g/ha): 80%; VERPE herbicidal activity in percent (Veronica persica; 1280 g/ha): 100%
CC1(C)CC(=O)c2cnc(N[C@@H]3CCCc4ccccc43)nc2C1 [2.25, 7,7-dimethyl-2-[(1R)-1,2,3,4-tetrahydronaphthalen-1-ylamino]-7,8-dihydroquinazolin-5(6H)-one] |  | 0% | 0% |  | 100% | 100% | 100% | 100% | 0% | 0% | 0% | 10% | 20% | 0% | 0% | 0% | 0% | 100% | 90% | 100% | post-emergence efficacy PHBPU (Ipomoea purpurea): 90%; chromatographic logP ([4]; HCOOH (formic acid)): 3.71; MATIN herbicidal activity in percent (Matricaria inodora; 80 g/ha): 90%; POLCO herbicidal activity in percent (Polygonum convolvulus; 320 g/ha): 100%; VIOTR herbicidal activity in percent (Viola tricolor; 80 g/ha): 100%; STEME herbicidal activity in percent (Stellaria media; 80 g/ha): 100%; ECHCG herbicidal activity in percent (Echinochloa crus-galli; 320 g/ha): 100%; SETVI herbicidal activity in percent (Setaria viridis): 100%
O=C1CC(c2ccc(F)cc2)Cc2nc(N[C@@H]3CCCc4ccccc43)ncc21 (stereo partly shown) [2.92] | 20% | 20% | 20% | oily; logp (HCOOH): 4.05; 1H-NMR (CDCl3, 400 MHZ, δ in ppm): 1.95 (m, 3H, 2H | 90% | 100% | 100% | 100% | 0% | 0% | 0% | 0% | 10% | 0% | 0% | 0% | 0% | 100% | 80% | 100% | VIOTR herbicidal activity in percent (Viola tricolor; 80 g/ha): 90%; STEME herbicidal activity in percent (Stellaria media; 80 g/ha): 100%; ECHCG herbicidal activity in percent (Echinochloa crus-galli; 320 g/ha): 100%; SETVI herbicidal activity in percent (Setaria viridis): 100%
CC(=O)c1cnc(N[C@@H]2CCCc3cc(F)ccc32)nc1C [1.88] | 0% | 0% |  |  | 100% | 100% | 100% | 100% | 0% | 0% | 0% | 0% | 20% | 0% | 10% | 0% | 0% | 90% | 80% | 100% | MATIN herbicidal activity in percent (Matricaria inodora; 80 g/ha): 100%
